From US20240279684A1, “CYTOSOLIC DELIVERY OF GENOME EDITING TOOLS” (SAPREME TECHNOLOGIES B.V., priority 2021, published 2024) come the findings set out here.

The subject of one series is Neuro-2A-cells. Description: Puromycin selection after knock-in of the GFP-Puromycin-LDS. The class given is cell-based, murine. The source says:
FIG. 12A, B. Puromycin selection after Knock-In of the GFP-Puromycin-LDS. After the knock-out of solute carrier Slc26a4 and integration of GFP-Puromycin-Donor sequence, the cells were cultivated for seven passages until Puromycin selection was started. Different concentrations of Puromycin were applied and the cell viability was observed (A, B). […] Plate wells in rows A-C are numbered 1-4 from left to right. Wells C3-4 were empty.
Subsequent to the co-transfection of Cas9-gRNA-Plasmid and LDS in the presence of GE1741, a Puromycin-mediated selection enabled the isolation of transfected cells and facilitates the identification of donor sequence integration into the genome. For this purpose, different Puromycin concentrations were applied to the transfected cells, in the presence of GE1741. The optimal puromycin concentration should optimally kill non-transfected/non-resistant cells, while sparing cells, which received the resistance through the donor sequence.

The next series concerns Neuro-2A cells. Description: Transfection efficiency of PD-nanoplexes with/without saponin, flow cytometry (GFP). The class given is cell-based, murine. The procedure: (§1) After biophysical characterisation had established that nanoplexes of the large plasmid DNA and the poly-lysine peptide were formed, cell experiments were performed: transfections. […] Without wishing to be bound by any theory, the latter effect is most likely due to insufficient complexing of DNA. […] JIMT-1-cells (DSMZ no.: ACC 589) and Neuro-2A- cells (DSMZ no.: ACC 148) were transfected with nanoplexes containing relatively large Cas9-GFP-plasmid, with and without GE1741-Co-application or SO1861-Co-application at a non-toxic concentration, when the cell which is to be transfected is considered. The transfection efficiency of all transfection conditions was measured after 48 h incubation time using flow cytometry by comparison to the negative control in terms of fluorescence intensity (for example, cells contacted with the nanoparticles in the absence of saponin). The efficiency of GE1741-based transfections and SO1861-based transfections was also compared with efficiency of Lipofectamine3000™-based transfection of the nanoparticles. Transfections were performed according to protocols commonly known and applied in the field (Clochard et al., 2020; Sama et al., 2018a; Sama et al., 2017; Sama et al., 2018b). […] Transfection efficiency of GE1741-mediated PD-transfection and SO1861-mediated PD-transfections on Neuro-2A cells and JIMT-1 cells was assessed. Cells were transfected with Cas9-GFP-DNA containing PD-nanoplexes, with and without GE1741 or SO1861 (final concentration of the saponin was 2 μg/ml). In Neuro-2A cells and JIMT-1 cells transection efficiency varied between 30% and 40%. Lipofectamin3000 served as reference. n≥3; a significant difference compared to the GE1741-free transfections or SO1861-free transfections was apparent, U-test, p≤0.05.
FIG. 4A, B. Transfection efficiency of saponin-mediated PD (Cas9-GFP)-transfections on Neuro-2A cells (FIG. 4A) and on JIMT-1-cells (FIG. 4B). Neuro-2A cells (A) and JIMT-1 cells (B) were transfected with GFP-DNA (i.e. a plasmid comprising the GFP DNA) bearing PD-nanoplexes or with Cas9-GFP-DNA bearing PD-nanoplexes, with and without the highest non-toxic saponin Co-administration (GE1741 Co-administration at 2 μg/ml or SO1861 Co-administration at 2 μg/ml). While GFP-DNA-transfections reached high efficiencies of around 70%, approximately 40% of all cells expressed GFP after Cas9-GFP-transfection. […] N≥3; *: significant difference compared to the saponin-free transfection (only nuclease), U-test.
JIMT-1-cells (human breast carcinoma) and Neuro-2A-cells (murine neuroblastoma) were transfected with nanoplexes, containing Cas9-GFP-plasmid, with and without saponin GE1741-co-application or saponin SO1861-co-application (that is to say, the saponin is added to the cell culture together with the addition of the nanoparticles comprising the nucleic acid that is to be transfected in the presence of the saponin), in a non-toxic concentration when the saponins are considered. The mass ratios for the peptide and the nucleic acid (plasmid DNA) in the nanoparticles were selected considering the dynamic light scattering (DLS) measurements and considering the aforementioned earlier assessed toxicity and earlier performed efficiency studies. The transfection efficiency of all transfection conditions was measured after 48 h incubation time via flow cytometry by comparison to the negative control in terms of fluorescence intensity (FIG. 4). […]

A further series deals with JIMT-1 cells. Described as above. The class given is cell-based, human. The conditions noted are these: GFP-DNA PD-nanoplexes, saponin 2 μg/ml. The procedure: as §1, with “Cells were transfected with Cas9-GFP-DNA containing PD-nanoplexes, with and without GE1741 or SO1861 (final concentration of the saponin was 2 μg/ml). In Neuro-2A cells and JIMT-1 cells transection efficiency varied between 30% and 40%. Lipofectamin3000 served as reference. n≥3; a significant difference compared to the GE1741-free transfections or SO1861-free transfections was apparent, U-test, p≤0.05.” left out

Series [1] has as its system cells with which the nanoplexes are contacted. Description: Toxicity of saponin towards cells during transfection. It counts as cell-based. The source says:
It is part of the invention that the method or the use of the invention is characterized in that the nanoparticle comprises the nanoparticle-forming compound, such as a peptide, such as poly-lysine, and the nucleic acid in a mass ratio in a range of 3:1 to 15:1, preferably in a range of 3:1 to 9:1. Typically, the nanoparticle-forming compound is a poly-lysine peptide such as K16 peptide. Preferred is the method wherein the nucleic acid is a plasmid DNA, at least encoding for a Cas, preferably Cas9 (SEQ ID NO: 1), and optionally also encoding for the gRNA, and wherein the nanoparticles comprise in addition to the plasmid DNA at least one poly-lysine peptide, preferably poly-lysine K16 peptide (poly-lysine peptide consisting of sixteen lysine residues). Alternatively, the poly-lysine peptide is a peptide consisting of 8-25 lysine residues, preferably 10-20, more preferably 12-18. High in vitro transfection efficiency is obtained with the method of the invention when nanoparticles encompassing plasmid DNA, K16 peptide are prepared and applied, and are contacted with cells in the presence of a saponin selected from GE1741 and SO1861, and preferably the saponin is GE1741. Typically, the saponin concentration during transfection of the plasmid DNA into selected target cells in vitro is 1 μg/mL-5 μg/mL, preferably 2-4 μg/mL. […] Cells are typically contacted with a composition comprising the nanoplexes and a separate composition comprising the saponin, preferably GE1741. Thus, typically, the nanoparticles comprise the poly-lysine peptide and the nucleic acid, for example at least a plasmid DNA encoding for a Cas, preferably Cas9 (SEQ ID NO: 1), or a Cas with at least 90% sequence identity with this Cas9, preferably 90-99.5% sequence identity, such as 92%, 93%, 94%, 95% or 95-99%.

Entries after “also recorded” stand apart in the source; their conditions may differ.

Consider `COc1ccc(C[C@H](N)C(=O)N[C@H]2[C@@H](O)[C@H](n3cnc4c(N(C)C)ncnc43)O[C@@H]2CO)cc1` [Puromycin], for which the “effect on cells (selection)” value in the series with Neuro-2A-cells (0.5 μg/mL) was “no significant effect”; with Neuro-2A-cells (1 μg/mL), “incomplete selection; also recorded: decrease of confluence”; in the series on Neuro-2A-cells (2 μg/mL) it was “decrease of confluence”; in the series on Neuro-2A-cells (2-3 μg/mL) it was “diminished nearly all cells”.
Turning to `CC(=O)OC1C(C)OC(OC2C(C)OC(OC(=O)[C@]34CCC(C)(C)CC3C3=CCC5[C@@]6(C)CC[C@H](OC7OC(C(=O)O)C(O)C(OC8OCC(O)C(O)C8O)C7OC7OC(CO)C(O)C(O)C7O)[C@@](C)(C=O)C6CC[C@@]5(C)C3(C)CC4O)C(OC3OC(C)C(OC4OCC(O)C(OC5OC(CO)C(O)C(O)C5O)C4O)C(O)C3O)C2O)C(O)C1OC1OCC(O)C(O)C1O` (stereo partly drawn) [SO1861], the “transfection efficiency (cells expressing GFP)” value with Neuro-2A cells (GFP-DNA PD-nanoplexes, saponin 2 μg/ml, Neuro-2A) was “around 70%”; with JIMT-1 cells it was “around 70%”. Further, the “transfection efficiency compared with Lipofectamine3000” value with Neuro-2A cells (nanoplexes of relatively large DNA plasmid and poly-lysine, saponin present) is “higher than obtainable with current gold standard Lipofectamine3000™”. For the same compound, in series [1] (Neuro-2A and JIMT-1 transfections), the “highest non-toxic saponin Co-administration” value came to 2 µg/mL. In addition, in series [1] (saponin concentration of 1 μg/mL-5 μg/mL, applied together with the nanoplexes), the “toxic activity towards the cells” value is given as “not exhibiting toxic activity”.
